Reference: the supplement of paper PMC10883282

How the values were obtained:
Assay in all cases: relative viability vs DMSO control (72 h) (fraction); higher = more viable cells
[1] = system: VA-ES-BJ
Procedure, shortened: (§1)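 Sarcoma cell lines went into 384-well plates at densities chosen to reach 80–90% confluence. After 24 h, each well received 2.5 µl of serially diluted compound, with source plates running from 10 mM to 0.0002 mM, and the plates were kept 72 h at 37 °C, 5% CO2, alongside 0.1% DMSO vehicle and a 5 µM positive control. Relative viability was derived from ATPLite readings as percent growth and averaged over up to triplicate wells. The data were then rescaled so that 1 stands for full and 0 for none.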

[2] = system: SK-LMS-1
Procedure, shortened: as §1

[3] = system: RD-ES
Procedure, shortened: as §1

[4] = system: SW982
Procedure, shortened: as §1

[5] = system: SW872
Procedure, shortened: as §1

[6] = system: HT1080
Procedure, shortened: as §1

[7] = system: KHOS-NP
Procedure, shortened: as §1

[8] = system: G401
Procedure, shortened: as §1

[9] = system: A204
Procedure, shortened: as §1

[10] = system: HS729
Procedure, shortened: as §1

[11] = system: SW684
Procedure, shortened: as §1

[12] = system: SK-ES-1
Procedure, shortened: as §1

Cc1cn(-c2cc(NC(=O)c3ccc(C)c(Nc4nccc(-c5cccnc5)n4)c3)cc(C(F)(F)F)c2)cn1 [Nilotinib]
Conditions	relative viability
[1], 0.00017 µM	1.05
[1], 0.00051 µM	1.04
[1], 0.00152 µM	1.04
[1], 0.00457 µM	1.05
[1], 0.01372 µM	1.05
[1], 0.04115 µM	1.06
[1], 0.1235 µM	1.08
[1], 0.3704 µM	1.1
[1], 1.111 µM	1.1
[1], 3.333 µM	0.989
[1], 10 µM	0.679
[2], 0.00017 µM	0.953
[2], 0.00051 µM	0.983
[2], 0.00152 µM	1.01
[2], 0.00457 µM	1.03
[2], 0.01372 µM	1.02
[2], 0.04115 µM	1.05
[2], 0.1235 µM	1.11
[2], 0.3704 µM	1.12
[2], 1.111 µM	1.16
[2], 3.333 µM	0.978
[2], 10 µM	0.965
[3], 0.00017 µM	0.934
[3], 0.00051 µM	0.919
[3], 0.00152 µM	0.927
[3], 0.00457 µM	0.938
[3], 0.01372 µM	0.925
[3], 0.04115 µM	0.936
[3], 0.1235 µM	0.912
[3], 0.3704 µM	0.883
[3], 1.111 µM	0.826
[3], 3.333 µM	0.702
[3], 10 µM	0.714
[4], 0.00017 µM	0.977
[4], 0.00051 µM	0.983
[4], 0.00152 µM	0.957
[4], 0.00457 µM	0.974
[4], 0.01372 µM	0.988
[4], 0.04115 µM	0.994
[4], 0.1235 µM	0.987
[4], 0.3704 µM	0.998
[4], 1.111 µM	0.973
[4], 3.333 µM	0.902
[4], 10 µM	0.727
[5], 0.00017 µM	0.959
[5], 0.00051 µM	0.91
[5], 0.00152 µM	0.924
[5], 0.00457 µM	0.926
[5], 0.01372 µM	0.948
[5], 0.04115 µM	0.971
[5], 0.1235 µM	1.01
[5], 0.3704 µM	0.999
[5], 1.111 µM	0.94
[5], 3.333 µM	0.796
[5], 10 µM	0.766
[6], 0.00017 µM	1.02
[6], 0.00051 µM	0.997
[6], 0.00152 µM	0.964
[6], 0.00457 µM	1.01
[6], 0.01372 µM	1.04
[6], 0.04115 µM	0.991
[6], 0.1235 µM	1.03
[6], 0.3704 µM	1
[6], 1.111 µM	0.993
[6], 3.333 µM	1.02
[6], 10 µM	0.889
[7], 0.00017 µM	1.038
[7], 0.00051 µM	1.05
[7], 0.00152 µM	1.04
[7], 0.00457 µM	1.05
[7], 0.01372 µM	1.02
[7], 0.04115 µM	1.02
[7], 0.1235 µM	1.044
[7], 0.3704 µM	1.03
[7], 1.111 µM	1.04
[7], 3.333 µM	1.02
[7], 10 µM	0.929
[8], 0.00017 µM	0.944
[8], 0.00051 µM	0.963
[8], 0.00152 µM	0.968
[8], 0.00457 µM	0.963
[8], 0.01372 µM	0.979
[8], 0.04115 µM	0.982
[8], 0.1235 µM	0.995
[8], 0.3704 µM	0.923
[8], 1.111 µM	0.865
[8], 3.333 µM	0.795
[8], 10 µM	0.737
[9], 0.00017 µM	1
[9], 0.00051 µM	0.979
[9], 0.00152 µM	1.03
[9], 0.00457 µM	1.04
[9], 0.01372 µM	1.05
[9], 0.04115 µM	1.074
[9], 0.1235 µM	1.01
[9], 0.3704 µM	0.662
[9], 1.111 µM	0.421
[9], 3.333 µM	0.34
[9], 10 µM	0.345
[10], 0.00017 µM	0.914
[10], 0.00051 µM	0.914
[10], 0.00152 µM	0.92
[10], 0.00457 µM	0.915
[10], 0.01372 µM	0.922
[10], 0.04115 µM	0.907
[10], 0.1235 µM	0.848
[10], 0.3704 µM	0.792
[10], 1.111 µM	0.766
[10], 3.333 µM	0.656
[10], 10 µM	0.737
[11], 0.00017 µM	1.04
[11], 0.00051 µM	1.07
[11], 0.00152 µM	1.09
[11], 0.00457 µM	1.07
[11], 0.01372 µM	1.07
[11], 0.04115 µM	1.12
[11], 0.1235 µM	1.21
[11], 0.3704 µM	1.32
[11], 1.111 µM	1.26
[11], 3.333 µM	1.24
[11], 10 µM	1.15
[12], 0.00017 µM	0.966
[12], 0.00051 µM	0.958
[12], 0.00152 µM	0.951
[12], 0.00457 µM	0.919
[12], 0.01372 µM	0.954
[12], 0.04115 µM	0.975
[12], 0.1235 µM	0.997
[12], 0.3704 µM	0.908
[12], 1.111 µM	0.788
[12], 3.333 µM	0.55
[12], 10 µM	0.484
